Measured values reported in publication PMC10636063, “Progesterone activation of β1-containing BK channels involves two binding sites” (Nature Communications, 2023).
Where “and” joins values, the source holds several entries; their conditions need not be identical. Identical values can stand only once.

Legend:
[1] = target: T1, slo1 (cbv1 isoform)+β1 BK channels (Rattus norvegicus, UniProt P97678); assay: Channel activity (NPo) in POPE/POPS planar lipid bilayers, cbv1+β1; assay type: biochemical; conditions: for normalized NPo, time course Fig 2E: 10uM PROG
T1 construct: made in house; host or cells: CHO cells, transient transfection; sucrose-gradient membrane preparation
From the text: BK channel-forming slo1 cDNA (cbv1 isoform; AY330293) was cloned from rat cerebral artery SM cells, and inserted into pcDNA3.1 vector as described. BK β1 cDNA (KCNMB1 product; NP_011452; FJ154955) were isolated from rat cerebral artery SM cells and cloned as described. β4 cDNA (KCNMB4; NP_055320; AY028605) were generously provided by Dr. Ligia Toro. CHO cells were transiently transfected with cbv1 ± β1-, or β4-carrying pcDNA3.1 using X-tremeGENE HP (Sigma-Aldrich). Mutations to β1/4 cDNAs were conducted by Genscript, with sequences being confirmed to be >99% identical to KCNMB1 product; NP_011452 or β4 KCNMB4; NP_055320; respectively. β1/4 and mutant constructs were flag-tagged (DYKDDDDK-tag) by Genscript services for subsequent immunoprecipitation and use in microscale thermophoresis studies.
Proteins for electrophysiological recordings in artificial lipid bilayers remained untagged. Cells were transiently transfected as described above, pelleted and re-suspended on ice in 10 ml of buffer solution of the following composition (mM): 30 KCl, 2 MgCl2, 10 HEPES, 5 EGTA; pH 7.2. A membrane preparation was obtained using a sucrose gradient as described. Aliquots were stored at −80 °C. BK channel-mediated ionic current was recorded in planar lipid bilayers consisting of a POPE:POPS 3:1 (w/w) mixture. Lipid mixtures were dried under N2 and re-suspended in 25 mg/ml of n-decane BK currents following incorporation into horizontal bilayers at 300/30 mM cis/trans gradient as detailed elsewhere. Ion currents were obtained during a 10-min gap-free recording at 0 mV in the presence of 0.01, 10 μM PROG, 10 μM PROG-oxime, or vehicle control (dimethyl sulfoxide; DMSO). Currents were obtained in gap-free mode using a Warner BC-525D amplifier, low pass-filtered at 1 kHz and sampled at 5 kHz with Digidata 1550B/pCLAMP 11 (Molecular Devices). For comparison with previous data from us[16],[17],[45]–[47], studies were conducted at 20–22 °C. […]
Patch-clamp and bilayer data were analyzed using Clampfit 10.7 software (Molecular Devices). NPo was used as an index of channel steady-state activity where N = number of channels in the patch (defined as a maximal number of opening levels at Po≤1) and Po=single channel open probability. Drug-induced NPo changes were determined by comparing baseline NPo (i.e., NPo with the patch/cell perfused with bath solution) to the NPo from the same patch/cell exposed to the agent under study (DMSO/PROG/oxime) dissolved in bath solution. NPo and mean open time values were automatically calculated using Clampfit 10.7, the latter using a 50% threshold detection event.

[2] = system: de-endothelialized, pressurized MCA segments (C57BL/6); assay: Cerebral artery diameter in vitro, de-endothelialized pressurized MCA segments; parameters: species or system mouse
From the text: Eight-12 week-old C57BL/6J and KCNMB1^−/− on C57BL/6 background mice of both sexes were deeply anesthetized with isoflurane via inhalation in a tightly sealed jar. Resistance size MCAs (~100 μm in external diameter) were dissected out of the mouse brains after animal euthanasia with sharp scissors. For de-endothelialized records, the endothelium was removed by passing an air bubble into the vessel lumen for 90 s[30]. This method has been consistently used by our group and validated using endothelium-dependent versus endothelium-independent vasodilators[16],[26]. Arteries were cannulated as previously described by our group[26],[40]. MCAs were cut into 5 to 10 mm-long segments under a microscope (Nikon SMZ645). The segment was cannulated at each end, and the artery exterior was continuously perfused with physiologic sodium saline (PSS) of the following composition (mM): 119 NaCl, 4.7 KCl, 1.2 KH2PO4, 1.6 CaCl2, 1.2 MgSO4, 0.023 EDTA, 11 glucose, 24 NaHCO3, pH=7.4. PSS was continuously bubbled with an O2/CO2/N2 (21/5/74%) gas mixture and maintained at 35–37 °C. The artery external wall diameter was measured using the automatic edge-detection function of lonWizard software (lonOptix) via Sanyo VCB-3512T camera (Sanyo Electric Co.). Arteries were first incubated at an intravascular pressure of 10 mm Hg for 10 min. Then intravascular pressure was increased to 60 mmHg and held steady throughout the experiment to induce myogenic tone development and maintenance[19],[30],[51]. Each artery segment was exposed to PROG, PROG-oxime (in presence and absence of 1 µM paxilline) only once to avoid development of desensitization during repeated applications of PROG-containing solution. To determine arterial viability, arterial contractility was probed with a high KCl solution at the end of each experiment. The high KCl solution was composed of the following composition (mM): 63.7 NaCl, 60 KCl, 1.2 KH2PO4, 1.2 MgSO4, 0.023 EDTA, 11 glucose, 24 NaHCO3, 1.6 CaCl2, pH=7.4. Like PSS, the high-KCl solution was continuously bubbled with O2/CO2/N2 (21/5/74%) gas mixture and maintained at 35–37 °C.

[3] = system: pial arteries branching out of the MCA (C57BL/6J); assay: Cerebral artery diameter through cranial window in vivo; parameters: species or system mouse
Experimental: Eight-12 week-old male and female C57BL/6J mice were anesthetized with a mixture of xylazine/ketamine (12/100 mg per kg) and kept anesthetized for the duration of the experiment with subsequent ketamine doses (50 mg/kg of weight) as needed. A catheter was inserted into the carotid artery so that the infusion went straight to the brain rather than towards the thoracic cavity. An area of the skull was cleared of tissue and thinned to expose the branching arteries originating from the MCA on the side the catheter was inserted, above the zygomatic arch, between the ear and eye of the skull[19],[34]. The exposed arteries branching out from the MCA were monitored using a Leica MC170 HD microscope with a mounted camera (Leica M125 C) connected to a computer monitor. Drugs were diluted to their final concentration in sodium saline (0.9% NaCl) and administered via catheter at 0.1 ml/25 g of weight. Cranial window images before and after drug administration were acquired every 60 seconds for subsequent analysis.

T1 sequence (P97678 whole entry, canonical isoform): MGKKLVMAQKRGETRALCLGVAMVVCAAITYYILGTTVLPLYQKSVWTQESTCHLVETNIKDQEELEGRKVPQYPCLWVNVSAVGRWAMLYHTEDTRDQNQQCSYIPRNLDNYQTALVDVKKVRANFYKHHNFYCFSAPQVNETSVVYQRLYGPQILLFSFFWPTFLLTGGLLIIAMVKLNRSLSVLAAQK
T1 sequence (Q62976 1-1148 isoform Q62976-2 partner): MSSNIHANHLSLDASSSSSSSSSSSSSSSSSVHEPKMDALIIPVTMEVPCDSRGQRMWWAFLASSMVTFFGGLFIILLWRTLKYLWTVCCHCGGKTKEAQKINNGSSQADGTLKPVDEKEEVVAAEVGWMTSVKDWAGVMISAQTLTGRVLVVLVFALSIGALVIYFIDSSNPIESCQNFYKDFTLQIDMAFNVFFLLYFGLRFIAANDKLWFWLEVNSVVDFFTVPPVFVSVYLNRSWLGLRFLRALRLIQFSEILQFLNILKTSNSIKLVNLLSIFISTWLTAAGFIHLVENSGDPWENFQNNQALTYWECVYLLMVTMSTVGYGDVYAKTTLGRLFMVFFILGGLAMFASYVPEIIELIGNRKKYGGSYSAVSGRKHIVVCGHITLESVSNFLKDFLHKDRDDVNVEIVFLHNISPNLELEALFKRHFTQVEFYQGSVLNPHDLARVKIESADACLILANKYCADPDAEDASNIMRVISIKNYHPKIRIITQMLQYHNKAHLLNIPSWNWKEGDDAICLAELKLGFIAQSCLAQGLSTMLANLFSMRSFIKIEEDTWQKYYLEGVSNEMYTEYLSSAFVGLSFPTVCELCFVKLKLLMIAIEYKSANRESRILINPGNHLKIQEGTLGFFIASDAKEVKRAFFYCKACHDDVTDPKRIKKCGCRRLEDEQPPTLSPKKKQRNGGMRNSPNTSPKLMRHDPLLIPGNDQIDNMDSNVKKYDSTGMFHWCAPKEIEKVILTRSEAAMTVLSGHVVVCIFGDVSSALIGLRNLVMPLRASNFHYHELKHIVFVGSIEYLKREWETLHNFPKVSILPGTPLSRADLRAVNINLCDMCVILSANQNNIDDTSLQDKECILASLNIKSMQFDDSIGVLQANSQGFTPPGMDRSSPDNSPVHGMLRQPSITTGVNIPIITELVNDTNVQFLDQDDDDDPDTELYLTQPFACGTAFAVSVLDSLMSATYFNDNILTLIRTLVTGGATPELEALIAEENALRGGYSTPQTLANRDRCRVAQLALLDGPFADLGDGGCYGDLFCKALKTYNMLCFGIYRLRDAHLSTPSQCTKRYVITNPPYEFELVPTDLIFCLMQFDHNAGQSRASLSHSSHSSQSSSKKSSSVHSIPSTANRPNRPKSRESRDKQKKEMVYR

SMILES: CC(=O)[C@H]1CC[C@H]2[C@@H]3CCC4=CC(=O)CC[C@]4(C)[C@H]3CC[C@]12C [PROG, Progesterone]
- ECmax (EC100) of channel activation ([1]; 0 mV, 30 μM free Ca2+): 10 µM
- concentrations at which the channel is activated ([1]; 0 mV, 30 μM free Ca2+): greater than 0.1 μM
- NPo/NPobasal ([1]; 0.01 µM PROG, min 2, single records): 1.005 and 1.018 and 0.9275 and 1.019
- NPo/NPobasal ([1]; 0.01 µM PROG, min 3, single records): 1.029 and 1.009 and 1.058 and 0.9199
- NPo/NPobasal ([1]; 0.01 µM PROG, min 4, single records): 1.061 and 1.114 and 0.9928 and 1.089
- NPo/NPobasal of the maximal channel activity ([1]; 0.01 µM PROG, single records (Fig 1F)): 1.155 and 1 and 1.022 and 0.9918
- NPo/NPobasal ([1]; 0.1 µM PROG, min 2, single records): 0.9159 and 1.034 and 0.6663 and 1.012
- NPo/NPobasal ([1]; 0.1 µM PROG, min 3, single records): 0.7024 and 1.035 and 0.937 and 1.005
- NPo/NPobasal ([1]; 0.1 µM PROG, min 4, single records): 0.9376 and 1.037 and 1.102 and 0.9472
- NPo/NPobasal ([1]; 0.1 µM PROG, min 5, single records): 0.831 and 1.031 and 0.9946
- NPo/NPobasal ([1]; 0.1 µM PROG, min 6, single records): 0.9108 and 1.004
- NPo/NPobasal ([1]; 0.1 µM PROG, min 7, single records): 0.902 and 1.062
- NPo/NPobasal ([1]; 0.1 µM PROG, min 8, single records): 0.9384 and 1.053
- NPo/NPobasal ([1]; 0.1 µM PROG, min 9, single records): 0.9735 and 1.083
- NPo/NPobasal ([1]; 0.1 µM PROG, min 10, single records): 1.131 and 1.104
- NPo/NPobasal ([1]; 1 µM PROG, min 2, single records): 1.067 and 1.036 and 1.018 and 0.9862
- NPo/NPobasal ([1]; 1 µM PROG, min 3, single records): 1.103 and 0.992 and 0.9993 and 1.0069
- NPo/NPobasal ([1]; 1 µM PROG, min 4, single records): 0.9802 and 1.24 and 0.9671 and 1.426
- NPo/NPobasal ([1]; 1 µM PROG, min 5, single records): 1.982 and 1.288 and 1.134 and 1.31
- NPo/NPobasal ([1]; 1 µM PROG, min 6, single records): 1.589 and 1.543 and 1.405 and 1.4
- NPo/NPobasal ([1]; 1 µM PROG, min 7, single records): 1.339 and 1.38
- NPo/NPobasal ([1]; 1 µM PROG, min 8, single records): 1.498 and 1.434
- NPo/NPobasal ([1]; 1 µM PROG, min 9, single records): 1.121 and 1.382
- NPo/NPobasal ([1]; 1 µM PROG, min 10, single records): 1.43 and 1.377
- NPo/NPobasal ([1]; 3 µM PROG, min 3, single records): 1.768 and 1.125 and 1.174
- NPo/NPobasal ([1]; 3 µM PROG, min 4, single records): 2.026 and 1.046 and 1.706
- NPo/NPobasal ([1]; 3 µM PROG, min 9, single records): 2.184 and 1.286
- NPo/NPobasal ([1]; 3 µM PROG, min 10, single records): 2.295 and 1.4507
- normalized NPo, time course Fig 2E ([1]; cbv1+beta1, time 1 min (normalisation reference), columns = single bilayers): 1
- normalized NPo, time course Fig 2E ([1]; cbv1+beta1, time 2 min): 1.077 and 1.05 and 1.119 and 1.043 and 0.7556 and 0.908 and 1.053
- normalized NPo, time course Fig 2E ([1]; cbv1+beta1, time 6 min): 1.387 and 1.439 and 2.22 and 2.096 and 2.632 and 2.4507 and 1.714
- normalized NPo, time course Fig 2E ([1]; cbv1+beta1, time 7 min): 1.767 and 1.768 and 2.22 and 2.153 and 1.686 and 2.452 and 1.347
- normalized NPo, time course Fig 2E ([1]; cbv1+beta1, time 9 min): 1.702 and 2.262 and 1.688 and 2.653 and 1.535 and 1.822
- normalized NPo, time course Fig 2E ([1]; cbv1+beta1, time 10 min): 1.856 and 2.788 and 1.831 and 1.767 and 1.527
- action on channel activity (NPo) ([1]; 10 μM, cis chamber, vs DMSO): readily and robustly activated
- NPo/NPobasal ([1]; 100 µM PROG, min 2, single records): 0.9793 and 1.054 and 0.898
- NPo/NPobasal ([1]; 100 µM PROG, min 3, single records): 1.51 and 1.02 and 1.024
- NPo/NPobasal ([1]; 100 µM PROG, min 4, single records): 1.597 and 1.676 and 0.9571
- NPo/NPobasal ([1]; 100 µM PROG, min 5, single records): 1.91 and 2.009 and 1.692
- NPo/NPobasal ([1]; 100 µM PROG, min 6, single records): 2.017 and 2.015 and 2.955
- NPo/NPobasal ([1]; 100 µM PROG, min 7, single records): 1.186 and 2.342 and 2.352
- NPo/NPobasal ([1]; 100 µM PROG, min 8, single records): 1.501 and 2.445 and 2.086
- NPo/NPobasal ([1]; 100 µM PROG, min 9, single records): 1.524 and 2.434
- NPo/NPobasal ([1]; 100 µM PROG, min 10, single records): 1.446 and 2.664
- vasoactive response of MCA segments ([2]; 10 μM in the presence of 1 μM paxilline): lost
- vasoactive response of MCA segments ([2]; 10 μM, male and female mice): dilated MCA segments
- percent changes in MCA diameter ([2]; male mice, 10 μM PROG, individual arterial segments): 4.2471% and 1.678% and 1.882% and 1.946% and 2.105% and 8.38% and 2.776% and 5.128% and 1.929% and 4.348%
- in vivo action on MCA branches ([3]; 10 μM infused via carotid artery, both sexes): vasodilation
- artery diameter, normalized to time 0 ([3]; Fig 7C, time 4, individual replicates, male mice): 1.09 (2×) and 1.035 and 1.058 and 0.9438
- artery diameter, normalized to time 0 ([3]; Fig 7C, time 5, individual replicates, male mice): 1.016 and 1.1 and 0.9912 and 1.082 and 0.9491
- artery diameter, normalized to time 0 ([3]; Fig 7C, time 6, individual replicates, male mice): 1.051 and 1.116 and 1.012 and 1.08 and 1.037
- artery diameter, normalized to time 0 ([3]; Fig 7C, time 7, individual replicates, male mice): 1.112 and 1.049 and 1.05 and 1.107 and 1.058
- artery diameter, normalized to time 0 ([3]; Fig 7C, time 8, individual replicates, male mice): 1.011 and 1.1193 and 1.034 and 1.1 and 1.095
- artery diameter, normalized to time 0 ([3]; Fig 7C, time 9, individual replicates, male mice): 1.079 and 1.105 and 1.031 and 1.086 and 1.089
- artery diameter, normalized to time 0 ([3]; Fig 7C, time 10, individual replicates, male mice): 1.09 and 1.053 and 0.9685 and 1.068 and 1.048
- artery diameter, normalized to time 0 ([3]; Fig 7C, time 11, individual replicates, male mice): 1.108 and 1.043 and 1.018 and 1.059 and 1.07
- artery diameter, normalized to time 0 ([3]; Fig 7C, time 12, individual replicates, male mice): 0.9973 and 1.002 and 1.105 and 1.107 and 1.084
- artery diameter, normalized to time 0 ([3]; Fig 7C, time 13, individual replicates, male mice): 1.13 and 1.0049 and 1.077 and 1.135 and 1.0321
- artery diameter, normalized to time 0 ([3]; Fig 7D, time 4, individual replicates, female mice): 1.137 and 1.058 and 0.95 and 1.071 and 1.184
- artery diameter, normalized to time 0 ([3]; Fig 7D, time 5, individual replicates, female mice): 0.9598 and 1.079 and 0.97 and 0.997 and 1.229
- artery diameter, normalized to time 0 ([3]; Fig 7D, time 6, individual replicates, female mice): 1.069 and 1.14 and 1.01 and 1.116 and 1.159
- artery diameter, normalized to time 0 ([3]; Fig 7D, time 7, individual replicates, female mice): 1.131 and 1.157 and 1.04 and 1.012 and 1.149
- artery diameter, normalized to time 0 ([3]; Fig 7D, time 8, individual replicates, female mice): 1.128 and 1.058 and 1.05 and 1.074 and 1.104
- artery diameter, normalized to time 0 ([3]; Fig 7D, time 9, individual replicates, female mice): 1.1 and 1.083 and 1.05 and 1.009 and 1.17
- artery diameter, normalized to time 0 ([3]; Fig 7D, time 10, individual replicates, female mice): 1.137 and 1.135 and 1.10 and 1.112 and 1.096
- artery diameter, normalized to time 0 ([3]; Fig 7D, time 11, individual replicates, female mice): 1.0383 and 1.014 and 1.12 and 1.119 and 1.133
- artery diameter, normalized to time 0 ([3]; Fig 7D, time 12, individual replicates, female mice): 1.097 and 0.9908 and 1.08 and 1.129 and 1.16
- artery diameter, normalized to time 0 ([3]; Fig 7D, time 13, individual replicates, female mice): 1.0971 and 1.058 and 1.25 and 1.0807 and 1.024
- artery diameter, normalized (PROG vs oxime comparison) ([3]; Fig 7F, same values as Fig 7D time 7, individual replicates, female mice): 1.043
